Reference: patent US11446388B2, “Amanitin antibody conjugates” ([…] Research GmbH, priority 2016, dated 2022)
*1 amine or outer side, *2 acyl side, *3 side chain or, on linkers, in order; H or OH if unused. Where a SMILES comes first, the peptide text is derived from it. Bridges are numbered along the chain shown (N, C = ends). [ ]: non-standard residue; d: D form. The star is where a group is joined. ξ: configuration not given here. X2 = CC(C)C(NC(=O)CCN1C(=O)C=CC1=O)C(=O)N[C@@H](C)C(=O)Nc1ccc(CN*)cc1; Trp(2-yl) = O=C([C@H](Cc1c([*:3])[nH]c2ccccc12)N[*:1])[*:2]; Ile(4R-OH,5-OH) = C[C@H]([C@H](N)C(=O)O)[C@@H](O)CO; X3 = CC([C@H](N[*:1])C(=O)[*:2])[C@@H](O)CO; X1 = O=C([C@@H]1CC(O)CN1[*:1])[*:2]; ξD = NC(CC(=O)O)C(=O)O; ξC = NC(CS)C(=O)O

What was measured:
[1] = Western-Blot stability of reference Thiomab D265C conjugates in plasma and PBS; type: in vitro ADME; details: conjugated to reference Thiomab D265C; 37° C. in human plasma, mouse plasma and PBS for 0, 4 and 10 days
Text: Detection was done with a polyclonal anti-amanitin antibody from rabbit and an anti-rabbit antibody conjugated to horseradish peroxidase.

SKBR-3 cells = assay: Cytotoxicity on SKBR-3 after plasma or PBS stressing of reference Thiomab conjugates; type: cell-based; details: 4 days, SKBR-3 cells 96 h
Method: Test items were incubated in human plasma at 37° C. for 0 an 4 days. Cytotoxicity assay were performed on SKBR-3 cells for 96 h.
Test items were incubated in mouse plasma at 37° C. for 0 an 4 days. Cytotoxicity assay were performed on SKBR-3 cells for 96 h.
Test items were incubated in PBS at 37° C. for 0 an 4 days. Cytotoxicity assay were performed on SKBR-3 cells for 96 h. All ADCs show adequate stability to non-enzymatic environment.

[2] = Reactivity with cysteine in PBS buffer (RP-HPLC C18); type: physicochemical; details: 1 mg/mL, 10 mg/mL cysteine in PBS, pH 7.4 at 37° C., 24 h, 48 h and 6 d
Method: 1 mg/mL α-amanitin 10 mg/mL cysteine in PBS, pH 7.4 at 37° C. after 24 h, 48 h and 6 d RP-HPLC C18.
1 mg/mL β-amanitin 10 mg/mL cysteine in PBS, pH 7.4 at 37° C. after 24 h, 48 h and 6 d RP-HPLC C18.
1 mg/mL amanin 10 mg/mL cysteine in PBS, pH 7.4 at 37° C. after 24 h, 48 h and 6 d RP-HPLC C18.
1 mg/mL HDP 30.2105, 10 mg/mL cysteine in PBS, pH 7.4 at 37° C. after 24 h, 48 h and 6 d RP-HPLC C18; *impurity.
FIG. 7 summarizes the results from FIGS. 3 to 6; x axis: reaction time in hours; y axis: amount of remaining amatoxin variant in %.

[3] = system: NCI-H929 subcutaneous xenograft; assay: NCI-H929 subcutaneous xenograft, repeated dose; type: in vivo, mouse
Method: Once tumor volume reached 80 mm^3, mice (9 animals per group) were treated intravenously either once per week (1×/week), every two weeks (1×/2 weeks) or every 3 weeks (1×/3 weeks) with J22.9-ISY-D265C-30.2115 (doses 0.25 mg/kg, 0.5 mg/kg or 1 mg/kg) or were treated with PBS as control. In addition, 2 mg/kg doses were applied twice per week (2×/week). Tumor volumes were monitored twice per week.
The efficacy of drug substance J22.9-ISY-D265C-30.2115 was further evaluated in a repeated dose setting in the subcutaneous NCI-H929 xenograft model. Compared to the single dose application described above, doses were reduced to 1, 0.5 and 0.25 mg/kg and applied either once per week (1×/week), every two weeks (1×/2 weeks) or every three weeks (1×/3 weeks).

MM.1S Luc xenograft [4] = assay: Disseminating intravenous MM.1S Luc xenograft model, single dose; type: in vivo, mouse
Method: (§1) When reaching a mean flux of 1.5×10^6-1×10^7 (10-14 days after implantation) 8-10 mice per group were treated with single doses (2 and 4 mg/kg) of J22.9-ISY-D265C-30.1699, J22.9-ISY-D265C-30.2115 or PBS as control. Luciferase activity was monitored by non-invasive bio-imaging twice weekly, 10 minutes after administration of luciferin (10 μl/g body weight). (B) Individual tumor growth curves for each animal are depicted. Individual Growth curves are shown for groups treated with 2 mg/kg (solid line) and 4 mg/kg (dashed line) of J22.9-ISY-D265C-30.2115.
as §1, with “doses (0.1, 0.3, 1” for “doses (2”, “and 2” for “and 4”, “of” for “of J22.9-ISY-D265C-30.1699,”, “depicted.” for “depicted. Individual”, “with 1” for “with 2”
The antitumor activity of J22.9-ISY-D265C-30.1699 and J22.9-ISY-D265C-30.2115 was further tested in a disseminating intravenous MM.1S Luc xenograft model at doses of 2 and 4 mg/kg. […]

[5] = Dose-escalating tolerability study in non-human primates; type: in vivo, cynomolgus monkeys; details: repeated dosing of 3 mg/kg
Method: ALT: alanine transaminase; AST: aspartate transaminase; LDH: lactate dehydrogenase.
J22.9-ISY-D265C-30.2115 and J22.9-ISY-D265C-30.1699 were assessed for a dose-escalating tolerability study in cynomolgus monkeys. Groups of 3 animals were injected with J22.9-ISY-D265C-30.1699 at days 1 (0.3 mg/kg), 22 (1 mg/kg), and 44 (3 mg/kg), or with J22.9-ISY-D265C-30.2115 at days 1 (0.3 mg/kg), 21 (1 mg/kg), and 42, 64, 84, 106 (3 mg/kg each time point). Animals were monitored over time for biochemical and haematological blood parameters (see FIG. 25), urinalysis, body weight, food consumption, clinical signs and mortality. In addition, blood samples were collected for pharmacokinetic studies. At the end of the experiments tissue samples are used for histopathological examinations.

MM.1S Luc, and KMS-11 = assay: Timeline cytotoxicity experiment 24 to 120 hours on the two cell lines; type: cell-based, human; details: measured after 24, 46, 72, 96, and 120 hours
Method: Cytotoxicity potentials of J22.9-ISY-D265C-30.2115 was compared to the interchain conjugate J22.9-ISY-MMAF on two BCMA-positive MM cell lines (MM.1S Luc, and KMS-11). […] The efficacy of both compounds was compared in a timeline experiment on the two cell lines. Cytotoxicity was measured after 24, 46, 72, 96, and 120 hours (see FIGS. 26B+26C).

[6] = system: BCMA-positive NCI-H929 cells; assay: Plasma stability: cell-based cytotoxicity assay after incubation in plasma or PBS; set-up: species or system human
Method: J22.9-ISY-D265C-30.2115 (A) and J22.9-ISY-D265C-30.1699 (B) were incubated in PBS for control, or human, cynomolgus or mouse plasma for 0, 4, and 10 days at 37° C. and analysed for remaining cellular toxicity potential using BCMA-positive NCI-H929 cells.
Plasma stability of both ADC variants was confirmed in a cell-based cytotoxicity assay on BCMA-positive NCI-H929 cells (see Table 2) after incubation for 0, 4 and 10 days in PBS, human, cynomolgus or mouse plasma.

MM.1S Luc xenograft [7] = assay: Disseminating MM.1S Luc xenograft model, comparison with J22.9-ISY-MMAF; type: in vivo
Method: The antitumor activity of J22.9-ISY-D265C-30.2115 was compared to the interchain conjugate J22.9-ISY-MMAF in a disseminating intravenous MM.1S Luc xenograft model at doses of 1 and 4 mg/kg.

[8] = system: NCI-H929 subcutaneous xenograft; assay: NCI-H929 subcutaneous xenograft, single dose; type: in vivo, mouse
Method: Once tumor volume reached 80 mm^3, mice (8 animals per group) were treated intravenously with single doses (2 or 4 mg/kg) of J22.9-ISY-D265C-30.2115 or J22.9-ISY-D265C-30.1699, or were treated with PBS as control.. Tumor volumes were monitored twice per week.
Antitumor activity of J22.9-ISY-D265C-30.2115 and J22.9-ISY-D265C-30.1699 was tested in a subcutaneous NCI-H929 (see Table 3 for details of cell line) mouse xenograft model.

[9] = type: in vitro ADME; details: 37° C. for 0, 4, and 10 days in PBS, human, cynomolgus or mouse plasma
Method: Stability of J22.9-ISY-D265C-30.2115 and J22.9-ISY-D265C-30.1699 was tested following incubation at 37° C. for 0, 4, and 10 days in PBS, human, cynomolgus or mouse plasma.

RNA-polymerase II = RNA-polymerase II (Homo sapiens, UniProt P24928); details: read-out: KD of complex with RNA-polymerase II; cited from earlier work

With `CC[C@H](C)[C@@H]1NC(=O)CNC(=O)[C@H]2Cc3c([nH]c4cc(OCc5ccc(NC(=O)[C@H](C)NC(=O)[C@@H](NC(=O)CCN6C(=O)C=CC6=O)C(C)C)cc5)ccc34)[S@+]([O-])CC(NC(=O)CNC1=O)C(=O)N[C@@H](CC(N)=O)C(=O)N1CC(O)C[C@H]1C(=O)N[C@@H]([C@@H](C)[C@@H](O)CO)C(=O)N2` (some centres unmarked) [HDP 30.1699] the “stability / cross-links (Western-Blot)” value [1] was “considerable cross-links and loss of the amatoxin moiety”, the “cytotoxicity after plasma stressing” value (SKBR-3 cells; human plasma at 37° C.) was “remarkable loss of cytotoxicity” and the “cytotoxicity after plasma stressing” value (SKBR-3 cells; mouse plasma at 37° C.) was “remarkable loss of cytotoxicity”.

With `CC[C@H](C)[C@@H]1NC(=O)CNC(=O)[C@@H]2Cc3c([nH]c4ccccc34)SCC(NC(=O)CNC1=O)C(=O)NC(CC(=O)O)C(=O)N1CC(O)C[C@H]1C(=O)N[C@@H](C(C)[C@@H](O)CO)C(=O)N2` (some centres unmarked) [HDP 30.2105] (cyclo(GIG[ξC][ξD][X1][X3][Trp(2-yl)]); thioether 4-8) the reactivity with cysteine [2] was “complete absence of reactivity”.

In the case of `CC[C@H](C)[C@@H]1NC(=O)CNC(=O)[C@@H]2Cc3c([nH]c4ccccc34)SCC(NC(=O)CNC1=O)C(=O)N[C@@H](CC(=O)NCc1ccc(NC(=O)[C@H](C)NC(=O)C(NC(=O)CCN3C(=O)C=CC3=O)C(C)C)cc1)C(=O)N1CC(O)C[C@H]1C(=O)N[C@@H]([C@@H](C)[C@@H](O)CO)C(=O)N2` (stereo partly drawn) [HDP 30.2115] (cyclo(D(X2)[X1][Ile(4R-OH,5-OH)][Trp(2-yl)]GIG[ξC]); thioether 4-8), the “stability / cross-links (Western-Blot)” value [1] is reported as “high stability and significantly reduced cross-links”, the “cytotoxicity after plasma stressing” value (SKBR-3 cells; human plasma at 37° C.) is reported as “still picomolar activity” and the “cytotoxicity after plasma stressing” value (SKBR-3 cells; mouse plasma at 37° C.) is reported as “remains almost unchanged”.

In the case of “J22.9-ISY-D265C-30.2115: Thiomab antibody J22.9-ISY-D265C conjugated to amatoxin-linker HDP 30.2115 via engineered cysteine 265, cleavable linker”, the tumor response ([3]; repeated 2 mg/kg dosing) is reported as “complete tumor remission”, the tumor response ([3]; repeatedly applied doses of 1 mg/kg) is reported as “tumor regression” and the tumor response (MM.1S Luc xenograft [4]; single dose application of 0.3 mg/kg) is reported as “complete tumor eradication”. For the same compound, the “slight regrowth of tumor after initial response for over 90 days” value (MM.1S Luc xenograft [4]; single doses of 2 and 4 mg/kg) was 1 of 10, the “liver enzymes or LDH on repeated dosing” value [5] was “did not result in further increase” and the “time at which full cytotoxicity is unfolded” value (MM.1S Luc, and KMS-11) was “after 96 and 120 hours”. The EC50 ([6]; PBS pH 7.4, day 0, 37° C.) was 0.24 nM, the EC50 ([6]; PBS pH 7.4, day 4, 37° C.) was 0.24 nM and the EC50 ([6]; PBS pH 7.4, day 10, 37° C.) was 0.41 nM. It also gave an EC50 ([6]; cynomolgus plasma, day 0, 37° C.) of 0.25 nM, an EC50 ([6]; cynomolgus plasma, day 4, 37° C.) of 0.25 nM and an EC50 ([6]; human plasma, day 0, 37° C.) of 0.28 nM. For the same compound, the EC50 ([6]; human plasma, day 4, 37° C.) was 0.27 nM, the EC50 ([6]; human plasma, day 10, 37° C.) was 1 nM and the “influence of incubation on cytotoxic potential” value ([6]; incubation in PBS or plasma up to 10 days) was “almost no influence on the cytotoxic potential”. It also gave an EC50 ([6]; mouse plasma, day 0, 37° C.) of 0.12 nM, an EC50 ([6]; mouse plasma, day 4, 37° C.) of 0.18 nM and an EC50 ([6]; mouse plasma, day 10, 37° C.) of 0.6 nM. For the same compound, the “time to regrowth of the tumor” value (MM.1S Luc xenograft [7]; 1 mg/kg) was 50 days, the “time to regrowth of the tumor” value (MM.1S Luc xenograft [7]; 4 mg/kg) was 100 days and the “time to initial response” value (MM.1S Luc xenograft [7]; 1 and 4 mg/kg (both doses)) was 10 days. For the same compound, the “efficacy compared with MMAF conjugate” value (MM.1S Luc xenograft [7]; in vivo) was “better efficacy in terms of tumor free survival”, the “anti-tumor efficacy compared to J22.9-ISY-D265C-30.1699” value ([8]; 2 mg/kg) was “slightly superior anti-tumor efficacy” and the “statistically significant body weight reduction” value ([8]; single doses 2 or 4 mg/kg) was “No statistically significant body weight reduction was observed”. For the same compound, the “initial response followed by regrowth of tumor” value ([8]; single treatment 2 mg/kg iv) was 6 of 8, the complete tumor remission ([8]; single treatment 4 mg/kg iv) was 7 of 8 and the “stability (Western Blot)” value [9] was “particularly high stability”.

For amanin, the reactivity with cysteine [2] was “reduced reactivity”.

For amanitin, the Kd (RNA-polymerase II) is given as 3 nM.

In the case of α-amanitin, the reactivity with cysteine [2] is reported as “strong reactivity”.

In the case of β-amanitin, the reactivity with cysteine [2] is reported as “strong reactivity”.
